Where “and” joins values, the source holds several entries; their conditions need not be identical. Identical values can stand only once.
Tested on: SK(-)GAS Streptococcus pyogenes + kanamycin, BacTiterGlo viability, 6 h
Assay: Streptococcus pyogenes SK(-)GAS viability under kanamycin – luminescence, BacTiterGlo, confirmation, counter-screen for streptokinase expression inhibitor project, dose response (AID 1900)

Row | Compound | EC50
1 | CN(C)c1ccnc2c[cH-]cc12.[Fe].c1ccc(-[c-]2[c-](-c3ccccc3)[c-](-c3ccccc3)[c-](-c3ccccc3)[c-]2-c2ccccc2)cc1 (configuration not stated) | 989 nM and 334 nM
2 | CNC(CC(C)C)C(=O)NC1C(=O)NC(CC(N)=O)C(=O)NC2C(=O)NC3C(=O)NC(C(=O)NC(C(=O)O)c4cc(O)cc(O)c4-c4cc3ccc4O)C(O)c3ccc(c(Cl)c3)Oc3cc2cc(c3OC2OC(CO)C(O)C(O)C2OC2CC(C)(N)C(O)C(C)O2)Oc2ccc(cc2Cl)C1O (configuration not stated) | 211 nM

Reference: PubChem BioAssay AID1900 (Broad Institute, 2009)
